Consider twelve molecules from PubChem BioAssay (NCI).

Each structure is given as a SMILES string.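 Step 1: Grow cells in 96-well plates. Step 2: Expose to compound for 48 hours at 5 concentrations. Step 3: Interpolate endpoints linearly; if unreached, use highest concentration. GI50 is the concentration that inhibits growth by half. TGI: concentration producing complete growth inhibition.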

Some test systems named below: 786-0 renal; BT-549 breast; CCRF-CEM leukemia; HCC-2998 colon; HCT-116 colon; MALME-3M melanoma; MDA-MB-231 breast; NCI-H460 lung; RPMI-8226 leukemia; SR leukemia.
Common to all, as to test: NCI anticancer screen, dose series, 48 h

As to `COc1ccccc1CN=C1NC(=O)/C(=C/c2ccc3ncccc3c2)S1`, the GI50 in the assay on 786-0 renal was 10.9 µM; with BT-549 breast, 5.18 µM; in the assay on CCRF-CEM leukemia, 7.01 µM; with HCC-2998 colon, 17.5 µM; in the assay with HCT-116 colon it was 3.1 µM; with MALME-3M melanoma, more than 25 µM. Besides, the GI50 with MDA-MB-231 breast was 11.2 µM; with NCI-H460 lung, 6.91 µM; with RPMI-8226 leukemia, 7.17 µM; with SR leukemia, 1.87 µM. For the same molecule, the TGI with 786-0 renal was more than 25 µM; in the assay with BT-549 breast, 14 µM; with CCRF-CEM leukemia it was more than 25 µM; with HCC-2998 colon, more than 25 µM; in the assay on HCT-116 colon it was more than 25 µM; with MALME-3M melanoma, more than 25 µM. Also, the TGI in the assay with MDA-MB-231 breast is more than 25 µM; with NCI-H460 lung, more than 25 µM; in the assay with RPMI-8226 leukemia, more than 25 µM; with SR leukemia it was more than 17.9 µM.
For `O=C(/C=C/c1ccccc1)Nc1ncc(Cc2ccccc2)s1`, the GI50 was 0.598 µM with 786-0 renal; 1.17 µM with BT-549 breast; 0.194 µM in the assay on CCRF-CEM leukemia; 0.303 µM with HCC-2998 colon; 0.141 µM in the assay on HCT-116 colon; 1.08 µM with MALME-3M melanoma. In addition, the GI50 with MDA-MB-231 breast is 0.415 µM; in the assay on NCI-H460 lung, 0.289 µM; in the assay on RPMI-8226 leukemia it was 0.309 µM; in the assay with SR leukemia, 0.0501 µM. Further, the TGI is 10.7 µM with 786-0 renal; more than 100 µM in the assay with BT-549 breast; more than 80.8 µM in the assay with CCRF-CEM leukemia; 3.42 µM with HCC-2998 colon; more than 33.4 µM with HCT-116 colon; more than 100 µM in the assay with MALME-3M melanoma. Further, the TGI in the assay with MDA-MB-231 breast is 9.28 µM; with NCI-H460 lung, 5.01 µM; in the assay on RPMI-8226 leukemia, more than 28 µM; in the assay on SR leukemia, 10.2 µM.
Consider `C/C(=N\N)C(CN1CCCCC1)C(c1ccccc1)c1c(O)c2ccccc2oc1=O` (centres undefined), for which the TGI in the assay on 786-0 renal, in the assay on BT-549 breast, in the assay with CCRF-CEM leukemia, in the assay with HCC-2998 colon, in the assay on HCT-116 colon and in the assay with MALME-3M melanoma was more than 100 µM throughout. Further, the TGI in the assay on MDA-MB-231 breast, with NCI-H460 lung, in the assay on RPMI-8226 leukemia and in the assay with SR leukemia was more than 100 µM in each case.
On to `COc1cc(/C=C/C(=O)c2ccc(F)cc2)ccc1OCCCCOc1cc2c(cc1OC)C(=O)N1CCCC1C=N2` (centres undefined), for which the GI50 is 0.989 µM in the assay with 786-0 renal; 0.855 µM in the assay on BT-549 breast; 0.285 µM with CCRF-CEM leukemia; 0.674 µM with HCC-2998 colon; 0.618 µM in the assay on HCT-116 colon; 0.835 µM in the assay on MALME-3M melanoma. In addition, the GI50 in the assay on MDA-MB-231 breast is 1.27 µM; in the assay on NCI-H460 lung, 0.83 µM; with RPMI-8226 leukemia, 0.218 µM; in the assay on SR leukemia, 0.188 µM. For the same molecule, the TGI was 7.74 µM in the assay on 786-0 renal; 1.88 µM with CCRF-CEM leukemia; 9.61 µM in the assay with HCC-2998 colon; 6.09 µM in the assay on HCT-116 colon; 18.3 µM in the assay with MALME-3M melanoma; more than 21.2 µM with MDA-MB-231 breast. Also, the TGI in the assay on NCI-H460 lung worked out at 6.67 µM; with RPMI-8226 leukemia, 1.31 µM; in the assay on SR leukemia, 0.841 µM.
On to `Oc1ccccc1/C=N/Nc1nc2ccccc2s1`, for which the GI50 with 786-0 renal was 7.96 µM; with BT-549 breast, more than 100 µM; in the assay with CCRF-CEM leukemia, 4.37 µM; with HCC-2998 colon it was 5.37 µM; with HCT-116 colon, 2.85 µM; with MALME-3M melanoma, 30 µM. The GI50 with MDA-MB-231 breast was 2.49 µM; in the assay on NCI-H460 lung, 3.41 µM; with RPMI-8226 leukemia, 4.7 µM; in the assay with SR leukemia, 7.71 µM. The TGI in the assay with 786-0 renal is 89 µM; in the assay on BT-549 breast, more than 100 µM; with CCRF-CEM leukemia, more than 100 µM; in the assay with HCC-2998 colon, more than 100 µM; with HCT-116 colon, more than 100 µM; in the assay on MALME-3M melanoma, more than 100 µM. The TGI with MDA-MB-231 breast, with NCI-H460 lung, in the assay on RPMI-8226 leukemia and in the assay with SR leukemia was more than 100 µM in each case.
Turning to `CCN(CC)c1ccc(CNc2cc(C)nc3ccc(OC)cc23)cc1`, the GI50 with 786-0 renal was 2.01 µM; with BT-549 breast, 3.22 µM; in the assay with CCRF-CEM leukemia, 2.78 µM; in the assay on HCC-2998 colon, 1.77 µM; with HCT-116 colon it was 2.34 µM; with MALME-3M melanoma, 1.8 µM. For the same molecule, the GI50 in the assay on MDA-MB-231 breast is 2.46 µM; with NCI-H460 lung, 1.97 µM; with RPMI-8226 leukemia it was 1.71 µM; in the assay on SR leukemia it was 1.87 µM. Besides, the TGI is 4.29 µM with 786-0 renal; 10.7 µM with BT-549 breast; 10.2 µM in the assay with CCRF-CEM leukemia; 3.32 µM with HCC-2998 colon; 7.76 µM in the assay on HCT-116 colon; 3.43 µM in the assay on MALME-3M melanoma. In addition, the TGI with MDA-MB-231 breast stood at 6.81 µM; in the assay on NCI-H460 lung, 4.33 µM; in the assay with RPMI-8226 leukemia, 4.2 µM; in the assay on SR leukemia it was 4.56 µM.
Regarding `COc1ccc(C2CC(c3ccc4ccccc4c3)=NN2/C=C2\SC(=S)N(NC(=O)Cc3ccccc3Nc3c(Cl)cccc3Cl)C2=O)cc1` (centres undefined), the GI50 in the assay with 786-0 renal was 0.508 µM; in the assay on BT-549 breast, 0.681 µM; in the assay on CCRF-CEM leukemia it was 0.239 µM; in the assay on HCC-2998 colon it was 1.39 µM; in the assay with HCT-116 colon, 0.482 µM; in the assay with MALME-3M melanoma it was 1.34 µM. The GI50 was 1.6 µM in the assay with MDA-MB-231 breast, 0.388 µM in the assay with NCI-H460 lung, 0.309 µM in the assay with RPMI-8226 leukemia and 0.309 µM in the assay on SR leukemia. Also, the TGI with 786-0 renal is more than 38.1 µM; in the assay with BT-549 breast, more than 43 µM; in the assay with CCRF-CEM leukemia it was more than 100 µM; in the assay on HCC-2998 colon, more than 33.3 µM; with HCT-116 colon it was more than 39.6 µM; with MALME-3M melanoma it was more than 49 µM. The TGI in the assay on MDA-MB-231 breast is more than 44.4 µM; with NCI-H460 lung, more than 34 µM; in the assay on RPMI-8226 leukemia it was 1.78 µM; in the assay on SR leukemia, more than 100 µM.
`COc1ccc(C(=O)OC2C(OC3C(O)COC(O[C@H]4C[C@H]5[C@@H]6CC=C7C[C@@H](O)CC[C@]7(C)[C@H]6CC[C@]5(C)[C@H]4[C@H](C)C(=O)CCC(C)C)C3OC(=O)C(C)C)OCC(O)C2O)cc1` (some centres undefined): the GI50 with 786-0 renal is less than 0.00275 µM; with BT-549 breast it was less than 0.00275 µM; with CCRF-CEM leukemia, 0.00574 µM; with HCC-2998 colon, 1.88 µM; in the assay on HCT-116 colon it was 0.0107 µM; with MALME-3M melanoma, 0.0411 µM. The GI50 in the assay on MDA-MB-231 breast is 0.101 µM; with NCI-H460 lung, 0.0108 µM; in the assay with RPMI-8226 leukemia, less than 0.00275 µM; with SR leukemia, 0.0121 µM. The TGI in the assay on 786-0 renal is 2.99 µM; in the assay on BT-549 breast, 3.26 µM; in the assay on CCRF-CEM leukemia it was 0.0317 µM; with HCC-2998 colon it was 5.79 µM; in the assay on HCT-116 colon it was 3.25 µM; in the assay with MALME-3M melanoma it was 2.88 µM. Also, the TGI in the assay with MDA-MB-231 breast amounted to 4.65 µM; in the assay with NCI-H460 lung, 0.538 µM; in the assay with RPMI-8226 leukemia, 0.01 µM; with SR leukemia, 3.34 µM.
As for `COc1ccc(-c2cc(=O)c3c(OC)c(O)c(OC)cc3o2)cc1`, the TGI with 786-0 renal, in the assay with BT-549 breast, with CCRF-CEM leukemia, in the assay with HCC-2998 colon, in the assay on HCT-116 colon and with MALME-3M melanoma was more than 100 µM throughout. Further, the TGI was more than 100 µM in the assay on MDA-MB-231 breast, more than 100 µM with NCI-H460 lung, 99.3 µM in the assay with RPMI-8226 leukemia and more than 100 µM in the assay with SR leukemia.
For the molecule `C/C(=N\NC(=O)c1cccc(S(=O)(=O)N2CCN(C)CC2)c1)c1cc(Cl)ccc1O`, the GI50 in the assay with 786-0 renal was 0.992 µM; in the assay with BT-549 breast it was 1.94 µM; with CCRF-CEM leukemia, 0.422 µM; in the assay with HCC-2998 colon, 0.571 µM; in the assay with HCT-116 colon, 0.48 µM; with MALME-3M melanoma, 2.39 µM. Moreover, the GI50 in the assay on MDA-MB-231 breast is 0.667 µM; in the assay with NCI-H460 lung, 0.395 µM; in the assay with RPMI-8226 leukemia, 1.33 µM; in the assay on SR leukemia it was 0.383 µM. The TGI was more than 100 µM in the assay with 786-0 renal; 36 µM with BT-549 breast; more than 100 µM with CCRF-CEM leukemia; 28.7 µM in the assay with HCC-2998 colon; more than 76.2 µM in the assay with HCT-116 colon; 36.6 µM with MALME-3M melanoma. Moreover, the TGI in the assay on MDA-MB-231 breast is more than 100 µM; with NCI-H460 lung, more than 32 µM; in the assay on RPMI-8226 leukemia, more than 100 µM; in the assay on SR leukemia, more than 52.9 µM.
For `Cc1ccccc1NC(=O)N/C(N)=N/c1nc(C)c(C)s1`, the GI50 in the assay on 786-0 renal was 0.652 µM; with BT-549 breast, 1.14 µM; in the assay on CCRF-CEM leukemia, 0.243 µM; with HCC-2998 colon it was 0.712 µM; in the assay with HCT-116 colon it was 0.321 µM; in the assay with MALME-3M melanoma, 3.54 µM. Also, the GI50 in the assay with MDA-MB-231 breast is 1.52 µM; with NCI-H460 lung, 0.376 µM; with RPMI-8226 leukemia it was 0.39 µM; with SR leukemia, 0.0438 µM. Moreover, the TGI in the assay on 786-0 renal was more than 100 µM; in the assay with BT-549 breast, more than 100 µM; with CCRF-CEM leukemia, more than 100 µM; in the assay on HCC-2998 colon, more than 100 µM; with HCT-116 colon it was more than 75.9 µM; with MALME-3M melanoma it was more than 100 µM. The TGI with MDA-MB-231 breast, in the assay with NCI-H460 lung, with RPMI-8226 leukemia and in the assay on SR leukemia was more than 100 µM each time.
In the case of `O=C(CC(O)c1cccnc1)CC(O)c1cccnc1` (centres undefined), the TGI stood at 39.2 µM with 786-0 renal; 25.6 µM in the assay with BT-549 breast; 20.9 µM in the assay with CCRF-CEM leukemia; 28.6 µM with HCC-2998 colon; 4.33 µM in the assay on HCT-116 colon; 39.9 µM in the assay with MALME-3M melanoma. The TGI with MDA-MB-231 breast is 29.9 µM; in the assay on NCI-H460 lung, 35.9 µM; with RPMI-8226 leukemia, more than 100 µM; with SR leukemia, more than 100 µM.
